Patent US20100105758A1 (Centre de Recherche Public de la Sante, priority 2006, published 2010)

What was measured:
[1] = test system: THP-1-derived macrophages; assay: MMP-9 secretion by THP-1-derived macrophages, gelatin zymography and densitometry; type: cell-based
Experimental: Cells were incubated for 15 min with increasing concentrations of Ado and 10 μM EHNA before differentiation with 150 nM PMA for 48 hours. […] Concentrations of 10 μM Ado and 10 μM EHNA were used in further experiments. […] FIG. 2. […] THP-1 cells were treated for 15 min with Ado and 10 μM EHNA or vehicle before differentiation to macrophages with 150 nM PMA for 48 hours. EHNA, which inhibits Ado deaminase, and DIP, which inhibits Ado transport, were used to enhance endogenous Ado concentration. Gelatinase activity was measured in cell-free conditioned medium by zymography and densitometry. A. A representative zymogram is shown. […] C. Time-course experiment. […] FIG. 3. […] A. THP-1 cells were treated for 15 min with 10 μM Ado and 10 μM EHNA or vehicle before differentiation to macrophages with 150 nM PMA for 48 hours. […] B. THP-1 cells were treated for 15 min with 0.1, 1 or 10 μM of Ado receptors agonists (CPA, A1-specific; CGS21680, A2a-specific; IB-MECA, A3-specific). […] Gelatinase activity was assessed in conditioned medium. […] C. […] Cells were transfected with siRNA specific for A2a, A2b or A3 Ado receptors, incubated for 48 hours to achieve down-regulation of Ado receptors expression, treated for 15 min with 10 μM Ado and 10 μM EHNA or vehicle before differentiation to macrophages with 150 nM PMA for 48 hours. Conditioned medium was analysed by gelatin zymography. […] Cell culture. All cell culture reagents were from Lonza (Verviers, Belgium) unless specified otherwise. Peripheral venous blood was obtained from healthy volunteers. Peripheral blood mononuclear cells were obtained by Ficoll gradient. Monocytes were purified by negative selection using the Monocyte Isolation Kit II (Myltenyi Biotec GmbH, Bergisch Gladbach, Germany). […] Macrophages were incubated for 15 minutes with Ado/EHNA (10 μmol/L) or vehicle, then LPS (100 ng/ml) or vehicle was added and cells were incubated for another 24 hours before harvesting. Cells from the monocyte-like line THP-1 (ATCC, LGC Promochem, Teddington, UK) were propagated at 37° C.-5% CO2 in RPMI 1640 medium supplemented with L-glutamine (2 mM), Penicillin (100 Units/ml), Streptomycin (100 μg/ml), non-essential amino acids solution (1 μM), sodium pyruvate (1 mM), and 10% heat-inactivated fetal calf serum (FCS) (Eurobio, Les Ulys, France). For experiments, FCS in culture medium was reduced to 1%. Cells were treated for 15 min with EHNA vehicle (DMSO), Ado (0.01 to 100 μM), Ado receptors agonists (0.1 to 10 μM), EHNA (10 μM) or Dipyridamole (DIP) (10 μM). Cells were then differentiated into macrophages with 150 nM phorbol myristate actetate (PMA) for 24 hours. Macrophages were subsequently treated with LPS (1 to 1000 ng/ml), fMLP (10^−7 M) or H2O2 (10 mM) for another 24 hours. Analysis of gelatinase activity. Gelatin zymography was performed on culture supernatants to assess secreted MMP-9 activity. Briefly, conditioned medium was loaded on SDS-polyacrylamide gels containing 0.2% gelatin under non reducing conditions. After electrophoresis, gels were washed and incubated overnight at 37° C. in assay buffer (50 mM Tris-HCl, pH 7.6, 200 mM NaCl, 5 mM CaCl2, and 0.02% Brij35). Subsequently, gels were stained in 0.1% Coomassie Blue and destained in 25% ethanol/8% acetic acid. Densitometry was achieved using the Gel Logic 2200 Digital Imaging system and Aida Software (Kodak, Zavemtem, Belgium).

[2] = test system: THP-1-derived macrophages; assay: Ado receptor mRNA expression in THP-1-derived macrophages, quantitative PCR; type: cell-based; settings: 10 μM Ado and 10 μM EHNA, PMA 48 hours
Experimental: FIG. 3. […] A. THP-1 cells were treated for 15 min with 10 μM Ado and 10 μM EHNA or vehicle before differentiation to macrophages with 150 nM PMA for 48 hours. […] B. THP-1 cells were treated for 15 min with 0.1, 1 or 10 μM of Ado receptors agonists (CPA, A1-specific; CGS21680, A2a-specific; IB-MECA, A3-specific). […] Gelatinase activity was assessed in conditioned medium. […] C. […] Cells were transfected with siRNA specific for A2a, A2b or A3 Ado receptors, incubated for 48 hours to achieve down-regulation of Ado receptors expression, treated for 15 min with 10 μM Ado and 10 μM EHNA or vehicle before differentiation to macrophages with 150 nM PMA for 48 hours. Conditioned medium was analysed by gelatin zymography.
Cell culture. All cell culture reagents were from Lonza (Verviers, Belgium) unless specified otherwise. Peripheral venous blood was obtained from healthy volunteers. Peripheral blood mononuclear cells were obtained by Ficoll gradient. Monocytes were purified by negative selection using the Monocyte Isolation Kit II (Myltenyi Biotec GmbH, Bergisch Gladbach, Germany). […] Macrophages were incubated for 15 minutes with Ado/EHNA (10 μmol/L) or vehicle, then LPS (100 ng/ml) or vehicle was added and cells were incubated for another 24 hours before harvesting. […]
Real time quantitative PCR.

Nc1ncnc2c1ncn2[C@@H]1O[C@H](CO)[C@@H](O)[C@H]1O [adenosine]
increase of MMP-9 production ([1]; 100 μM Ado with 10 μM EHNA, 15 min before differentiation with 150 nM PMA for 48 hours): 3 fold
MMP-9 secretion (zymography), modulators of Ado metabolism ([1]; added alone or in combination, Ado 10 μM, EHNA 10 μM, DIP 10 μM, PMA 48 hours): triggered MMP-9 secretion
incubation period necessary to reproduce the effect of Ado on MMP-9 ([1]; time-course experiment, zymography of culture medium): at least 18 hours
A2b receptor expression (mRNA) [2]: more than two-fold increase
A3 receptor expression (mRNA) [2]: more than two-fold increase
